Measurements: publication PMC10224329, “Design, Synthesis, and Antiproliferative Activity of Benzopyran-4-One-Isoxazole Hybrid Compounds” (Molecules, 2023)
Entries after “also recorded” stand apart in the source; their conditions may differ.

System: ABL1, c-Kit, c-Src, CDK2/cyclin A1, CSK, EGFR, mTOR/FRAP1, p38a/MAPK14, PKCa, and PI3K
Test: Protein kinase panel screen, overall
Assay type: biochemical
Settings: single dose of 20 μM, all kinases screened
Method: Therefore, selected compound 5a was screened against several protein kinases to explore the potential of these hybrid compounds as kinase inhibitors. The screening of compound 5a was performed on a panel of 9 kinases, viz., ABL1, c-Kit, c-Src, CDK2/cyclin A1, CSK, EGFR, mTOR/FRAP1, p38a/MAPK14, PKCa, and PI3K, at a dose of 20 μM. The respective positive controls were used for each kinase, and the kinase reaction was performed at 200 μM ATP concentration for all the kinases except for PI3K, which was performed at 10 µM ATP (Table 2). […] It appeared that compound 5a containing a 3-position substitution with an isoxazole ring and a 4-position with a carbonyl group has a detrimental effect on kinase inhibition. Previously 3-substituted benzopyran compound with a short alkyl chain of urea (NH-CO-NH-Et/Me/iPr) was reported with Abl kinase inhibitory activity in the range of 4–27 μM [36]. […] Due to prominent antiproliferative activity, these compounds may have some other targets for anticancer activity.
Compound 5a was tested at a single dose of 20 μM against 9 kinases, viz., Abl1, c-Kit, c-Src, CDK2/cyclin A1, CSK, EGFR, mTOR/FRAP1, p38a/MAPK14, PKCa, and PI3K using our previously reported protocol in duplicate by Reaction Biology Corporation. […]

Compound: Cc1noc(C)c1C(=O)OCc1coc2ccccc2c1=O [Compound 5a, (4-Oxo-4H-1-benzopyran-3-yl)methyl 3,5-dimethylisoxazole-4-carboxylate]
- kinase inhibitory activity (in words): inactive; also recorded: did not show protein tyrosine kinase inhibitory activity
